Laboratory results: PubChem BioAssay AID1963841 (Molecular Pharmacology Branch, DTP, NCI, 2024)
pIC50: −log10 of the molar value. Where “and” joins values, the source holds several entries; their conditions need not be identical. Equal entries are not always repeated.

Test system: 439559-082-T-J2-PDC spheroid viability
Assay: Anticancer human tumor 439559-082-T-J2-PDC patient-derived colon adenocarcinoma cell line growth inhibition [POLQ]
Settings: spheroids with HUVEC and MSC; for viability, T/C: stronger effect = lower value
Description: Multicellular complex tumor spheroid response to Polymerase (POL) inhibitors (novobiocin, ART-558, RP6685) in combination with a variety of drugs and investigational agents in selected tumor cell lines
The POL inhibitors (novobiocin, ART-558, and RP6685) were evaluated both individually and in combination with standard of care and investigational anticancer small molecules within a complex spheroid model of solid tumors. . Complex spheroids include a stromal component modeled by human endothelial cells (HUVEC) and fibroblasts modeled by human mesenchymal stem cells (MSCs). The concentration ranges selected for each drug and investigational agent were based upon clinically achievable concentrations if the clinical Cmax of the agent was known.
Compounds. The drugs and investigational agents: novobiocin (NSC847541), ART-558 (NSC835418), RP-6685 (NSC848927), peposertib (NSC802822), ceralasertib (NSC780249), elimusertib (NSC800525), camonsertib (NSC841442), AZD-1390 (NSC803789), olaparib (NSC753686), talazoparib (NSC767125), rucaparib (NSC756644), sotorasib (NSC818433), MRTX-1133 (NSC836407), SN-38 (NSC673596), topotecan (NSC609699), epotoside (NSC141540), doxorubicin (NSC123127), gemcitabine (NSC613327), 5-fluorouracil (NSC19893), paclitaxel (NSC125973), vemurafenib (NSC761431), MSA-2 (NSC828583), SN-011 (NSC837082), adavosertib (NSC754352), prexasertib (NSC758257), carboplatin (NSC241240) and oxaliplatin (NSC266046), were obtained from the National Cancer Institute (NCI) Developmental Therapeutics Program Chemical Repository (21). The FDA-approved anticancer drug set is available from the Developmental Therapeutics Program at https://dtp.cancer.gov/organization/dscb/obtaining/. […] The stock solutions were prepared in dimethyl sulfoxide (DMSO, Sigma-Aldrich, St. Louis, MO, cat. D2650), except for the platinum compounds which were prepared in saline (Quality Biological, Gaithersburg, MD, cat. 114-055-101), at 800-fold the tested concentration and stored at -70 degrees C prior to their use. All drugs and investigational agents were tested over a range starting from a high concentration at or near the clinical Cmax and decreasing in half-log increments. If the clinical Cmax for an agent had not been determined, the highest concentration tested was 10 microM, except for SN-38, which was tested at a high concentration of 1 microM.
Cell Culture. All cells were maintained in an incubator at 37 degrees C and 5% CO2 with 95% humidity. The PDC lines were cultured according to standard operating procedures established by the NCI PDMR (https://pdmr.cancer.gov). Table 3 of the manuscript, lists the cell lines along with the number of the three cell types plated to form the mct-spheroids and media for tumor cell growth. After thawing, all PDC lines, except 997537-175-T-J1-PDC and 415267-285-R-J2-PDC, were cultured in Matrigel-coated flasks prepared with a working solution of 1X Ham's F-12 nutrient mix, without supplementation (Thermo Fisher Scientific, cat. 11765054), 100 U/mL penicillin-streptomycin (Thermo Fisher Scientific, cat. 15140122), and 2.5% Matrigel (Corning Inc., Corning, NY, cat. 354248) for the first three passages. The two PDC lines 997537-175-T-J1-PDC and 415267-285-R-J2-PDC were cultured on uncoated flasks. The 857933-349-R-J2-PDC line was cultured in 6C/Colon 1B media containing advanced DMEM/F-12 (Thermo Fisher Scientific, cat. 12634028), 10 mM HEPES (Thermo Fisher Scientific, cat. 15630080), 1X GlutaMAX supplement (Thermo Fisher Scientific, cat. 35050061), 0.1 mg/mL primocin (InvivoGen, San Diego, CA, cat. ant-pm-2), 10% defined fetal bovine serum, heat inactivated (HyClone Laboratories Inc., Logan, UT, cat. SH30070.03HI), 50% L-WRN conditioned media (ATCC, cat. CRL-3276), 1.25 mM N-Acetyl-L-cysteine (Sigma-Aldrich, cat. A9165), 10 mM nicotinamide (Sigma-Aldrich, cat. N0636), 1X B-27 supplement (Thermo Fisher Scientific, cat. 17504044), 1X N-2 supplement (Thermo Fisher Scientific, cat. […]
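Further: spheroids exposed to compounds for seven days before readout.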
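Wherever viability, T/C is given: 100% = DMSO vehicle control viability.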

With `Cn1ncnc1[C@H]1c2n[nH]c(=O)c3cc(F)cc(c23)N[C@@H]1c1ccc(F)cc1` + Nc1ccc(C#CCN(C(=O)Cc2ncc(C(F)(F)F)cc2C(F)(F)F)c2ccc(F)cc2)nn1 the pIC50 (curve of first compound, second compound 0.0316 µM) was < 7.00, the pIC50 (curve of first compound, second compound 0.1 µM) was < 7.00 and the pIC50 (curve of first compound, second compound 0.316 µM) was < 7.00. The pIC50 (curve of first compound, second compound 1 µM) was < 7.00, the pIC50 (curve of first compound, second compound 3.16 µM) was < 7.00 and the pIC50 (curve of first compound, second compound 10 µM) was < 7.00. For the same compound, the viability, T/C (second compound 0.0316 µM, first compound 0.000316 µM) was 91.8%, the viability, T/C (second compound 0.0316 µM, first compound 0.001 µM) was 104% and the viability, T/C (second compound 0.0316 µM, first compound 0.00316 µM) was 89.9%. The viability, T/C (second compound 0.0316 µM, first compound 0.01 µM) was 103%, the viability, T/C (second compound 0.0316 µM, first compound 0.0316 µM) was 101% and the viability, T/C (second compound 0.0316 µM, first compound 0.1 µM) was 91.7%. For the same compound, the viability, T/C (second compound 0.1 µM, first compound 0.000316 µM) was 103%, the viability, T/C (second compound 0.1 µM, first compound 0.001 µM) was 88.9% and the viability, T/C (second compound 0.1 µM, first compound 0.00316 µM) was 86.6%. For the same compound, the viability, T/C (second compound 0.1 µM, first compound 0.01 µM) was 93.2%, the viability, T/C (second compound 0.1 µM, first compound 0.0316 µM) was 93.1% and the viability, T/C (second compound 0.1 µM, first compound 0.1 µM) was 89.1%. It also gave a viability, T/C (second compound 0.316 µM, first compound 0.000316 µM) of 99.4%, a viability, T/C (second compound 0.316 µM, first compound 0.001 µM) of 112% and a viability, T/C (second compound 0.316 µM, first compound 0.00316 µM) of 90.2%. For the same compound, the viability, T/C (second compound 0.316 µM, first compound 0.01 µM) was 94.6%, the viability, T/C (second compound 0.316 µM, first compound 0.0316 µM) was 99.1% and the viability, T/C (second compound 0.316 µM, first compound 0.1 µM) was 90%. It also gave a viability, T/C (second compound 1 µM, first compound 0.000316 µM) of 111%, a viability, T/C (second compound 1 µM, first compound 0.001 µM) of 105% and a viability, T/C (second compound 1 µM, first compound 0.00316 µM) of 104%. The viability, T/C (second compound 1 µM, first compound 0.01 µM) was 102%, the viability, T/C (second compound 1 µM, first compound 0.0316 µM) was 94.3% and the viability, T/C (second compound 1 µM, first compound 0.1 µM) was 102%. The viability, T/C (second compound 3.16 µM, first compound 0.000316 µM) was 85.2%, the viability, T/C (second compound 3.16 µM, first compound 0.001 µM) was 106% and the viability, T/C (second compound 3.16 µM, first compound 0.00316 µM) was 103%. For the same compound, the viability, T/C (second compound 3.16 µM, first compound 0.01 µM) was 96.2%, the viability, T/C (second compound 3.16 µM, first compound 0.0316 µM) was 99.4% and the viability, T/C (second compound 3.16 µM, first compound 0.1 µM) was 94.2%. The viability, T/C (second compound 10 µM, first compound 0.000316 µM) was 93.1%, the viability, T/C (second compound 10 µM, first compound 0.001 µM) was 122% and the viability, T/C (second compound 10 µM, first compound 0.00316 µM) was 87.8%. It also gave a viability, T/C (second compound 10 µM, first compound 0.01 µM) of 85.4%, a viability, T/C (second compound 10 µM, first compound 0.0316 µM) of 101% and a viability, T/C (second compound 10 µM, first compound 0.1 µM) of 112%.
For `CNCc1ccc(-c2[nH]c3cc(F)cc4c3c2CCNC4=O)cc1`, the viability, T/C (compound 0.0316 µM) was 95.3% and 101% and 103%, the viability, T/C (compound 0.1 µM) was 100% and 103% and 95.7% and the viability, T/C (compound 0.316 µM) was 102% and 96.3% and 92.9%. For the same compound, the viability, T/C (compound 1 µM) was 98.9% and 111% and 95.9%, the viability, T/C (compound 3.16 µM) was 108% and 124% and 107% and the viability, T/C (compound 10 µM) was 94.3% and 101% and 108%. For the same compound, the pIC50 (curve of compound) was < 5.00.
In the case of `COC1C(OC(N)=O)C(O)C(Oc2ccc3c(O)c(NC(=O)c4ccc(O)c(CC=C(C)C)c4)c(=O)oc3c2C)OC1(C)C` (stereo unspecified), the viability, T/C (compound 0.0316 µM) was 102% [middle of 13 runs], the viability, T/C (compound 0.1 µM) was 96.7% [middle of 13 runs] and the viability, T/C (compound 0.316 µM) was 101% [middle of 13 runs]. The viability, T/C (compound 1 µM) was 101% [middle of 13 runs], the viability, T/C (compound 3.16 µM) was 100% [middle of 12 runs] and the viability, T/C (compound 10 µM) was 105% [middle of 13 runs]. The pIC50 (compound alone, run of 11/27/2023) was < 5.00.
